≈ marks a conversion by molar mass, not a printed value.
Columns and labels:
purified human FAS = molecular target: T1, purified human FAS (Homo sapiens, UniProt P49327); assay: FAS enzymatic activity (malonyl-CoA dependent NADPH oxidation, OD340); format: biochemical; settings: purified human FAS from ZR-75-1 cells
T1 construct: Human FAS was purified from cultured ZR-75-1 human breast cancer cells; endogenous in cells; host or cells: ZR-75-1 human breast cancer cells (ATCC); Purified by hypotonic lysis, PEG precipitations and Mono Q anion exchange
Description: Purification of FAS from ZR-75-1 Human Breast Cancer Cells.
Human FAS was purified from cultured ZR-75-1 human breast cancer cells obtained from the American Type Culture Collection. The procedure, adapted from Linn et al., 1981, and Kuhajda et al., 1994, utilizes hypotonic lysis, successive polyethyleneglycol (PEG) precipitations, and anion exchange chromatography. ZR-75-1 cells are cultured at 37° C. with 5% CO2 in RPMI culture medium with 10% fetal bovine serum, penicillin and streptomycin.
Ten T150 flasks of confluent cells are lysed with 1.5 ml lysis buffer (20 mM Tris-HCl, pH 7.5, 1 mM EDTA, 0.1 mM phenylmethanesulfonyl fluoride (PMSF), 0.1% Igepal CA-630) and dounce homogenized on ice for 20 strokes. The lysate is centrifuged in JA-20 rotor (Beckman) at 20,000 rpm for 30 minutes at 4° C. and the supernatant is brought to 42 ml with lysis buffer. A solution of 50% PEG 8000 in lysis buffer is added slowly to the supernatant to a final concentration of 7.5%. After rocking for 60 minutes at 4° C., the solution is centrifuged in JA-20 rotor (Beckman) at 15,000 rpm for 30 minutes at 4° C. Solid PEG 8000 is then added to the supernatant to a final concentration of 15%. After the rocking and centrifugation is repeated as above, the pellet is resuspended overnight at 4° C. in 10 ml of Buffer A (20 mM K2HPO4, pH 7.4). […] FAS protein concentration is determined using the Coomassie Plus Protein Assay Reagent (Pierce) according to manufacturer's specifications using BSA as a standard. […]
FAS activity is measured by monitoring the malonyl-CoA dependent oxidation of NADPH spectrophotometrically at OD340 in 96-well plates (Dils et al and Arslanian et al, 1975). […]
The assay is performed on a Molecular Devices SpectraMax Plus Spectrophotometer. […] Using the kinetic protocol, the wells are blanked on duplicate wells containing 100 μl of 100 mM K2HPO4, pH 6.5 and the plate is read at OD340 at 10 sec intervals for 5 minutes to measure any malonyl-CoA independent oxidation of NADPH. […] The plate is read again as above with the kinetic protocol to measure the malonyl-CoA dependent NADPH oxidation. […]

[1] = tested on: MCF-7 human breast cancer cells; assay: XTT cytotoxicity assay, MCF-7 (M); format: cell-based; settings: Homo sapiens, MCF7; (M) or no code; MCF-7, 72 hours
Description: The XTT assay is a non-radioactive alternative for the [^51Cr] release cytotoxicity assay. XTT is a tetrazolium salt that is reduced to a formazan dye only by metabolically active, viable cells. The reduction of XTT is measured spectrophotometrically as OD490-OD650.
To measure the cytotoxicity of specific compounds against cancer cells, 9×10^3 MCF-7 human breast cancer cells, obtained from the American Type Culture Collection are plated per well in 96 well plates in DMEM medium with 10% fetal bovine serum, insulin, penicillin, and streptomycin. Following overnight culture at 37° C. and 5% CO2, the compounds to be tested, dissolved in DMSO, are added to the wells in 1 μl volume at the following concentrations: 80, 40, 20, 10, 5, 2.5, 1.25, and 0.625 μg/ml in triplicate. Additional concentrations are tested if required. 1 μl of DMSO is added to triplicate wells are the vehicle control. C75 is run at 40, 20, 10, […], 10, and 5 in triplicate as positive controls.
After 72 hours of incubation, cells are incubated for 4 hours with the XTT reagent as per manufacturer's instructions (Cell Proliferation Kit II (XTT) Roche). Plates are read at OD490 and OD650 on a Molecular Devices SpectraMax Plus Spectrophotometer. Three wells containing the XTT reagent without cells serve as the plate blank. XTT data are reported as OD490-OD650. Averages and standard error of the mean are computed using SOFTmax Pro software ([…]).
The IC50 for the compounds is defined as the concentration of drug leading to a 50% reduction in OD400-OD650 compared to controls. The OD400-OD650 are computed by the SOFTmax PRO software (Molecular Devices) for each compound concentration. IC50 is calculated by linear regression, plotting the FAS activity as percent of control versus drug concentrations. Linear regression, best-fit line, r^2, and 95% confidence intervals are determined using Prism Version 3.0 (Graph Pad Software).

OV = assay: XTT cytotoxicity assay, OV; format: cell-based
FAO = FAO SC 150 / FAO Max; settings: for FAO Max: at the concentration given under E18

T1 sequence (P49327 whole entry): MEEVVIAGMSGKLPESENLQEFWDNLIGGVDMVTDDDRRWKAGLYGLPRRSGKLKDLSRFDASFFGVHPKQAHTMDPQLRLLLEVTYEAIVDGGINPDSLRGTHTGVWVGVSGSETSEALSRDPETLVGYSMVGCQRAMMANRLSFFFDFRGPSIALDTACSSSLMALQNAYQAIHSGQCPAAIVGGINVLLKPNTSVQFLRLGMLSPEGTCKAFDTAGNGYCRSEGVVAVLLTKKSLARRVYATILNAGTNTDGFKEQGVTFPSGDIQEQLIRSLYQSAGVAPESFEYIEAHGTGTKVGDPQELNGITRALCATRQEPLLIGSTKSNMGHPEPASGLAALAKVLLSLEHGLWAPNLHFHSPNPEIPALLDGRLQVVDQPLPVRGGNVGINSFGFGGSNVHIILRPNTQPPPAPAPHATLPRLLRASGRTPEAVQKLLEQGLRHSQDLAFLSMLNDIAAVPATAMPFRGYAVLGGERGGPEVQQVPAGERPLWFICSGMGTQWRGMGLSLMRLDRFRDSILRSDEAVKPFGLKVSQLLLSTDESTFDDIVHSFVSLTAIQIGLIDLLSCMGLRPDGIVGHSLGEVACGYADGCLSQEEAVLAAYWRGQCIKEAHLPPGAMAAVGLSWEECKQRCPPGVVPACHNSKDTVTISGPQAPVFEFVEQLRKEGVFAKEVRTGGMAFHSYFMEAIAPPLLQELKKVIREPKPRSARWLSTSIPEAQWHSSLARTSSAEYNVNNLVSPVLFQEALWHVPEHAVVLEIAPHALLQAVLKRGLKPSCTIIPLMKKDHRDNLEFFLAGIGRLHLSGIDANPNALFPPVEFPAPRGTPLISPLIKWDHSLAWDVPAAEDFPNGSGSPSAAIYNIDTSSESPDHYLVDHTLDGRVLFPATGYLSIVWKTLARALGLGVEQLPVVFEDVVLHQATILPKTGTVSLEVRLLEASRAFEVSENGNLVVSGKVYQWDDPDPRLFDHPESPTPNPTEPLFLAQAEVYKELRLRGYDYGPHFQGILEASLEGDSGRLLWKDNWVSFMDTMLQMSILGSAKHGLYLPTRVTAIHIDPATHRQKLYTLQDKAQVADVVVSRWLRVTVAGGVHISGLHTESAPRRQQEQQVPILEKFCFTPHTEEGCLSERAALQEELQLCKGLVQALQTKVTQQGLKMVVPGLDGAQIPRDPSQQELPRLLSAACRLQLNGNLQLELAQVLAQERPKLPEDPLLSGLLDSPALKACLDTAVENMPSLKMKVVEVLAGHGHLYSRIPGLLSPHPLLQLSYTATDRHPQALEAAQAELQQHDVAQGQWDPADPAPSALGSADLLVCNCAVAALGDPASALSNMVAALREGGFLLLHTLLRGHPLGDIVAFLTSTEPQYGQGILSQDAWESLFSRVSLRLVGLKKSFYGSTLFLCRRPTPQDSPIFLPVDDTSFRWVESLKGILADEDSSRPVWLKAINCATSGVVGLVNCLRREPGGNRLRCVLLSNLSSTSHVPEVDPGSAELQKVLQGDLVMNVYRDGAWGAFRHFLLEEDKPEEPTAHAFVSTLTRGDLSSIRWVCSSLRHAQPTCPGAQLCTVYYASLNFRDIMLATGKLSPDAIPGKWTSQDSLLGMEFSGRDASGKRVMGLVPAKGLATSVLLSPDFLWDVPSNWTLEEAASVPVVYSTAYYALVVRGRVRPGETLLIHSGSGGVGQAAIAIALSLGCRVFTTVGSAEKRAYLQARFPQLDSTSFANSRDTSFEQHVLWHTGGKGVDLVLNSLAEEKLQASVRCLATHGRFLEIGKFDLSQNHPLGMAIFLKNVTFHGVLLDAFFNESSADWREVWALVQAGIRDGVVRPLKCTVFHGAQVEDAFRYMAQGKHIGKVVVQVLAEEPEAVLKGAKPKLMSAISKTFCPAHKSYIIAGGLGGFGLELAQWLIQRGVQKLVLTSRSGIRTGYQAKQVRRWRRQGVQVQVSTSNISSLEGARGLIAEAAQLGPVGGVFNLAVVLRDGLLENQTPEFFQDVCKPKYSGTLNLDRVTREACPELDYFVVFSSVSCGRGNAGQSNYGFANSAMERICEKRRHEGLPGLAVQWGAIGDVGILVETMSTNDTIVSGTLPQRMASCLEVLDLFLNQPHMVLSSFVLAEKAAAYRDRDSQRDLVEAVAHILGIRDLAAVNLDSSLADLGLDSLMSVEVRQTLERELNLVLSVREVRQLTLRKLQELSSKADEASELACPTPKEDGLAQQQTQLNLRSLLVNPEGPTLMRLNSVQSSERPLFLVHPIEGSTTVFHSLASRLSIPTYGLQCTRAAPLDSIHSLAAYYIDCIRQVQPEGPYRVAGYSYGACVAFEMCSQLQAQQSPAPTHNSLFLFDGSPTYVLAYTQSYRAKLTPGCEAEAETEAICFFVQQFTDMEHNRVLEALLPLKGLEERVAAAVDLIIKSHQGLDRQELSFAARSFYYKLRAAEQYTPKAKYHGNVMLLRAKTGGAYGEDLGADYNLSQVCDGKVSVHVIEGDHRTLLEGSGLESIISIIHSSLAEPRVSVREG

FAS (IC50) (purified human FAS)	Structure (SMILES)	IC50 [1] [µg/mL]	IC50 (OV) [µg/mL]	FAO Max: concentration at which the maximum was seen (FAO) [µg/mL]	FAO SC 150 (FAO)	FAO Max (FAO) [% @]
Neg	CCCCCCCCC1(C)SC(=O)C=C1OCC(=O)NNc1ccccc1Cl (stereo not drawn) [Compound 19, (5-Methyl-5-octyl-2-oxo-thiophen-4-yloxy)-acetic-acid-N′-(2-chlorophenyl)-hydrazide]	6.1 ± 0.3 (≈ 14.4 µM)	9.4 (≈ 22.1 µM)	0.125	Neg	90
Neg	CCCCCCCCC1(C)SC(=O)C=C1OCC(=O)NNC(=O)c1ccncc1 (stereo not drawn) [Compound 20]	22.5 ± 2 (≈ 53.6 µM)	33 ± 9.1 (≈ 78.7 µM)	0.125	Neg	89

Source: patent publication US20100168176A1, “NOVEL COMPOUNDS, PHARMACEUTICAL COMPOSITIONS CONTAINING SAME, AND METHODS OF USE FOR SAME” (FASGEN LLC, priority 2006, published 2010)
